Measured values taken from patent US5677459A, “Methods for the preparation of modulators of acetylcholine receptors” (Sibia Neurosciences, Inc., priority 1995, dated 1997).
Read-outs that look alike come from different tables or passages of the source.

What was measured:
[1] = molecular target: T1, nicotinic acetylcholine receptor (Rattus norvegicus, UniProt P09483+P12390); test: ^3 H-Nicotine binding/displacement, rat cerebral membranes
T1 construct: the brains removed and the cerebral cortex dissected on ice; from tissue; host or cells: cerebral cortex synaptic membranes of male Sprague-Dawley rats

[2] = test system: ^3 H-Norepinephrine release, rat prefrontal cortex slices; test: Ligand-stimulated ^3 H-norepinephrine release from rat prefrontal cortex slices; format: cell-based; conditions: in vitro slices, 300 μM
Experimental: (§1) Measurement of ^3 H-dopamine release from rat striatal slices was performed according to the method of Sacaan et al. (J. Neurochem. 59:245 (1992)). Male Sprague-Dawley rats (250-300 g) were decapitated and the striata or olfactory tubercles dissected quickly on a cold glass surface. The tissue was chopped to a thickness of 300 μm with a McIlwain tissue chopper. After chopping again at right angles the tissue was dispersed and incubated for 10 min. at 37° C. in oxygenated Kreb's buffer. ^3 H-Dopamine (40 Ci/mmol, NEN- Dupont, Boston, Mass.) was added (50 nM) and the tissue was incubated for 30 min. in Kreb's buffer containing 10 μM pargyline and 0.5 mM ascorbic acid. Aliquots of the minced tissue were then transferred to chambers of a Brandel Superfusion system in which the tissue was supported on Whatman GF/B filter discs. The tissue was then superfused with buffer at a constant flow rate of 0.3 ml/min by means of a Brandel peristaltic pump. The perfusate was collected in plastic scintillation vials in 3-min fractions, and the radioactivity was estimated by scintillation spectrophotometry. The superfusate for the first 120 min was discarded. After two baseline fractions had been collected, the superfusion buffer was switched to fresh buffer with or without compound of interest. At the end of the experiment the filter and the tissue were removed, and the radiolabeled neurotransmitter content was estimated after extraction into scintillation fluid. The fractional efflux of radiolabeled neurotransmitter was estimated as the amount of radioactivity in the perfusate fraction relative to the total amount in the tissue.
Following essentially the same procedure as set forth above, the amount of ^3 H-norepinephrine released from rat hippocampus, thalamus and prefrontal cortex slices superfused with buffer containing (or lacking) compounds of interest was also measured.
(§2) Results of studies of the effects of an invention compound (as compared to the effect of nicotine) on the release of neurotransmitters from rat brain slices are presented in Table II. Results presented in Part A of the Table are expressed as the percent fractional release and results presented in Part B of the Table are expressed as a percentage, relative to nicotine response.

[3] = test system: ^3 H-Dopamine release, rat olfactory tubercles; test: Ligand-stimulated ^3 H-dopamine release from rat olfactory tubercles; format: cell-based; conditions: in vitro slices, 300 μM
Experimental: as §1, §2

[4] = ^3 H-nicotine 1.9 nM, rat cerebral membranes, read-out: IC50, Nicotine

T1 sequence (P09483 31-630): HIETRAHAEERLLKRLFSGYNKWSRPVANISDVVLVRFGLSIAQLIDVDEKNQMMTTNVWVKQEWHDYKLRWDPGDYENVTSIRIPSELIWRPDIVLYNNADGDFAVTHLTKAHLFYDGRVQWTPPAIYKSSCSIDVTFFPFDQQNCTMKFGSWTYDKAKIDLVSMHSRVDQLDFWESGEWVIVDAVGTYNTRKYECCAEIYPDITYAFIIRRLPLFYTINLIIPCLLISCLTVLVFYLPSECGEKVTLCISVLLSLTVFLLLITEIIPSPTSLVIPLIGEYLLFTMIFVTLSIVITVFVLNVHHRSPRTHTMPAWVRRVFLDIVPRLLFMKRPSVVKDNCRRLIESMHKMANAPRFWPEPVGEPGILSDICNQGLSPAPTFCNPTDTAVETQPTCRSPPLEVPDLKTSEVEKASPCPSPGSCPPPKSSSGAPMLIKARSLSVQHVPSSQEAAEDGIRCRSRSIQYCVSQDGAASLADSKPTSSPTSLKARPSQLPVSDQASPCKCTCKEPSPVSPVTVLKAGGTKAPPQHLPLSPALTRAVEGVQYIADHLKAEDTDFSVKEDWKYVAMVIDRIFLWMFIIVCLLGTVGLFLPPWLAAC
T1 sequence (P12390 25-500): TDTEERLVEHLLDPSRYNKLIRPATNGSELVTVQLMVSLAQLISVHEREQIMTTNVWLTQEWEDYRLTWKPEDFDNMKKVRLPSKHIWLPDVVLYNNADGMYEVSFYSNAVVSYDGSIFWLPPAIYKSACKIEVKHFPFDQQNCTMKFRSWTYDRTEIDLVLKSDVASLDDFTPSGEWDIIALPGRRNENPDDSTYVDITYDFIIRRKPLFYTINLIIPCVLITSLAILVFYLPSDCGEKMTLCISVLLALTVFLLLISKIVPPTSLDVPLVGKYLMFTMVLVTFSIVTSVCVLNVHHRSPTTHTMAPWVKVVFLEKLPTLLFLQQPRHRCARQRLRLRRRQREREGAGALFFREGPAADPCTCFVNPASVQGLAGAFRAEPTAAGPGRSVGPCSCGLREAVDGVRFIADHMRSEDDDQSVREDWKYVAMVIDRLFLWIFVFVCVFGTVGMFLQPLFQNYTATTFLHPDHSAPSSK

| SMILES | IC50 ([1]; IC50, Nicotine) [nM] | percent fractional release, ^3 H-Norepinephrine, Prefrontal Cortex [2] [%] | percent fractional release, ^3 H-Dopamine, Olfactory Tubercles [3] [%] | IC50 [1, 4] [nM] |
| --- | --- | --- | --- | --- |
| C#Cc1cncc(C2CCCN2C)c1.O=C(O)/C=C/C(=O)O (racemic) [R^5 = ethynyl (racemic), 5-Ethynyl-3-(1-methyl-2-pyrrolidinyl)pyridine fumarate] | 4.6 | 0.97 | 6.68 |  |
| CN1CCCC1c1cncc(-c2ccc(O)c(Cl)c2)c1.O=C(O)/C=C/C(=O)O (stereo not drawn) [R^5 = 3-chloro-4-hydroxyphenyl, 5-(4-hydroxy-3-chlorophenyl)-3-(1-methyl-2-pyrrolidinyl)pyridine fumarate] |  | 2.94 | 11.4 | 28 |
| CN1CCCC1c1cncc(-c2cccc(Cl)c2)c1.O=C(O)/C=C/C(=O)O (stereo not drawn) [R^5 = 3-chlorophenyl, 5-(3-Chlorophenyl)-3-(1-methyl-2-pyrrolidinyl) pyridine fumarate] |  | 1.7 | 3.25 | 120 |
| COc1ccc(-c2cncc(C3CCCN3C)c2)cc1F.O=C(O)/C=C/C(=O)O (stereo not drawn) [R^5 = 3-fluoro-4-methoxyphenyl, 5-(3-Fluoro-4-methoxyphenyl)-3-(1-methyl-2-pyrrolidinyl)pyridine fumarate] |  | 2.0 | 2.3 | 27 |
